From patent US8613914B2, “Peptidomimetic sulfamide compounds and antiviral uses thereof” (Novartis AG, priority 2009, dated 2013)

What was measured:
HCV = conditions: ribavirin alone, cited from earlier work
[1] = target: HCV NS3-4A serine protease (full-length NS3-4A protein) (Hepatitis C virus genotype 1a (isolate 1) (HCV), UniProt P26664); experiment: HCV NS3-4A protease assay; format: biochemical, HCV genotype 1a; conditions: strain HCV-1, fluorogenic peptide substrate, read-out: Protease assay Ex. 12 IC50
Experimental: The inhibitory activity of certain compounds of Table A against HCV NS3-4A serine protease is determined in a homogenous assay using the full-length NS3-4A protein (genotype 1a, strain HCV-1) and a commercially available internally-quenched fluorogenic peptide substrate as described by Taliani, M., et al. 1996 Anal. Biochem. 240:60-67, which is incorporated by reference in its entirety.

HCV NS3-4A serine protease (full-length NS3-4A protein), sequence (P26664 1027-1657): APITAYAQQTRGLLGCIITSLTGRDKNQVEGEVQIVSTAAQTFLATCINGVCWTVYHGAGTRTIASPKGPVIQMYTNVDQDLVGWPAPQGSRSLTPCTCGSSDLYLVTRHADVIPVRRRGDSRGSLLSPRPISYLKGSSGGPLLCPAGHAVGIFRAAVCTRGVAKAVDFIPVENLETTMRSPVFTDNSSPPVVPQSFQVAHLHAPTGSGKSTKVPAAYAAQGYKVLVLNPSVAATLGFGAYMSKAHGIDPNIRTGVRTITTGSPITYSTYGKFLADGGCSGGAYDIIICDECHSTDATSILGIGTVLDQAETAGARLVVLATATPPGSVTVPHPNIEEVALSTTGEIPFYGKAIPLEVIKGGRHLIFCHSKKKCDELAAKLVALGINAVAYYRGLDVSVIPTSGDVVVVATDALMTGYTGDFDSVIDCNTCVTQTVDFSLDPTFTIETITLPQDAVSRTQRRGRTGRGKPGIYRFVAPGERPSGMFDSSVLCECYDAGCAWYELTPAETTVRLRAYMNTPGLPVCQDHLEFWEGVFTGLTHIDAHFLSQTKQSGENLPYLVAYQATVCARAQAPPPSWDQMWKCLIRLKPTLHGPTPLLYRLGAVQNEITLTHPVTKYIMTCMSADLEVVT
HCV NS3-4A serine protease (full-length NS3-4A protein), sequence (P26664 1658-1711 partner): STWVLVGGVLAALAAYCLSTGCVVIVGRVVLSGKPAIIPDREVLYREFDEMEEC

| Structure (SMILES) | serum levels of HCV-RNA (HCV; patients) | patients in whom serum amino transferase levels are reduced to normal (HCV) [%] | IC50 [1] [nM] |
| --- | --- | --- | --- |
| NC(=O)c1ncn([C@@H]2O[C@H](CO)[C@@H](O)[C@H]2O)n1 [Ribavirin, ribavirin] | does not lower serum levels of HCV-RNA | 40 | – |
| C=C[C@@H]1C[C@]1(NC(=O)[C@@H]1C[C@@]2(CN1C(=O)[C@@H](NC(=O)[C@@H](NC(=O)c1ccc3[nH]ccc3c1)C1CCCCC1)C(C)(C)C)C(C)(C)C21CCC1)C(=O)NS(=O)(=O)N1CCCC1 [Compound 190, (5R,8S)-7-[(2S)-2-({cyclohexyl[(1H-indol-5-ylcarbonyl)amino]acetyl}amino)-3,3-dimethylbutanoyl]-10,10-dimethyl-N-{(1R,2S)-1-[(pyrrolidin-1-ylsulfonyl)carbamoyl]-2-vinylcyclopropyl}-7-azadispiro[3.0.4.1]decane-8-carboxamide] | – | – | 20 |
| C=C[C@@H]1C[C@]1(NC(=O)[C@@H]1C[C@@]2(CN1C(=O)[C@@H](NC(=O)[C@@H](NC(=O)[C@@H]1CCCN1C(C)C)C1CCCCC1)C(C)(C)C)C(C)(C)C21CCC1)C(=O)NS(=O)(=O)N(CC)CC [Compound 62, (5R,8S)-7-[(2S)-2-{[(2S)-2-cyclohexyl-2-({[(2S)-1-isopropylpyrrolidin-2-yl]carbonyl}amino)acetyl]amino}-3,3-dimethylbutanoyl]-N-[(1R,2S)-1-{[(diethylamino)sulfonyl]carbamoyl}-2-vinylcyclopropyl]-10,10-dimethyl-7-azadispiro[3.0.4.1]decane-8-carboxamide] | – | – | 1 |
| C=C[C@@H]1C[C@]1(NC(=O)[C@@H]1C[C@@]2(CN1C(=O)[C@@H](NC(=O)[C@@H](NC(=O)[C@@H]1CCCN1C(C)C)C1CCCC1)C(C)(C)C)C(C)(C)C21CCC1)C(=O)NS(=O)(=O)N1CCCC1 [Compound 59, (5R,8S)-7-[(2S)-2-{[(2S)-2-cyclopentyl-2-({[(2S)-1-isopropylpyrrolidin-2-yl]carbonyl}amino)acetyl]amino}-3,3-dimethylbutanoyl]-10,10-dimethyl-N-{(1R,2S)-1-[(pyrrolidin-1-ylsulfonyl)carbamoyl]-2-vinylcyclopropyl}-7-azadispiro[3.0.4.1]decane-8-carboxamide] | – | – | 3.5 |
| C=C[C@@H]1C[C@]1(NC(=O)[C@@H]1C[C@@]2(CN1C(=O)[C@@H](NC(=O)[C@@H](NC(=O)[C@H]1CCCCN1C(C)C)C1CCCCC1)C(C)(C)C)C(C)(C)C21CCC1)C(=O)NS(=O)(=O)N(CC)CCC [Compound 137, (5R,8S)-7-[(2S)-2-{[(2S)-2-cyclohexyl-2-({[(2R)-1-isopropylpiperidin-2-yl]carbonyl}amino)acetyl]amino}-3,3-dimethylbutanoyl]-N-[(1R,2S)-1-({[ethyl(propyl)amino]sulfonyl}carbamoyl)-2-vinylcyclopropyl]-10,10-dimethyl-7-azadispiro[3.0.4.1]decane-8-carboxamide] | – | – | 3.5 |
| C=C[C@@H]1C[C@]1(NC(=O)[C@@H]1C[C@@]2(CN1C(=O)[C@@H](NC(=O)[C@@H](NC(=O)c1cc(C(C)(C)C)nn1C)C1CCCCC1)C(C)(C)C)C(C)(C)C21CCC1)C(=O)NS(=O)(=O)N1CCCC1 [Compound 181, (5R,8S)-7-[(2S)-2-{[{[(3-tert-butyl-1-methyl-1H-pyrazol-5-yl)carbonyl]amino}(cyclohexyl)acetyl]amino}-3,3-dimethylbutanoyl]-10,10-dimethyl-N-{(1R,2S)-1-[(pyrrolidin-1-ylsulfonyl)carbamoyl]-2-vinylcyclopropyl}-7-azadispiro[3.0.4.1]decane-8-carboxamide] | – | – | 90 |
| C=C[C@@H]1C[C@]1(NC(=O)[C@@H]1C[C@@]2(CN1C(=O)[C@@H](NC(=O)[C@@H](NC(=O)[C@@H]1CCCCN1C(C)C)C(C)(C)C)C(C)(C)C)C(C)(C)C21CCC1)C(=O)NS(=O)(=O)N1CCCC1 [Compound 3, (5R,8S)-7-[(2S)-2-{[(2S)-2-({[(2S)-1-isopropylpiperidin-2-yl]carbonyl}amino)-3,3-dimethylbutanoyl]amino}-3,3-dimethylbutanoyl]-10,10-dimethyl-N-{(1R,2S)-1-[(pyrrolidin-1-ylsulfonyl)carbamoyl]-2-vinylcyclopropyl}-7-azadispiro[3.0.4.1]decane-8-carboxamide] | – | – | 6 |
| C=C[C@@H]1C[C@]1(NC(=O)[C@@H]1C[C@@]2(CN1C(=O)[C@@H](NC(=O)[C@@H](NC(=O)[C@@H]1CCCCN1C(C)C)C1(C)CCCCC1)C(C)(C)C)C(C)(C)C21CCC1)C(=O)NS(=O)(=O)N1CCCC1 [Compound 135, (5R,8S)-7-[(2S)-2-{[(2S)-2-({[(2S)-1-isopropylpiperidin-2-yl]carbonyl}amino)-2-(1-methylcyclohexyl)acetyl]amino}-3,3-dimethylbutanoyl]-10,10-dimethyl-N-{(1R,2S)-1-[(pyrrolidin-1-ylsulfonyl)carbamoyl]-2-vinylcyclopropyl}-7-azadispiro[3.0.4.1]decane-8-carboxamide] | – | – | 4.5 |
| C=C[C@@H]1C[C@]1(NC(=O)[C@@H]1C[C@@]2(CN1C(=O)[C@@H](NC(=O)[C@@H](NC(=O)[C@@H]1CCCCN1CC)C1CCCCC1)C(C)(C)C)C(C)(C)C21CCC1)C(=O)NS(=O)(=O)N(CC)CC [Compound 77, (5R,8S)-7-[(2S)-2-{[(2S)-2-cyclohexyl-2-({[(2S)-1-ethylpiperidin-2-yl]carbonyl}amino)acetyl]amino}-3,3-dimethylbutanoyl]-N-[(1R,2S)-1-{[(diethylamino)sulfonyl]carbamoyl}-2-vinylcyclopropyl]-10,10-dimethyl-7-azadispiro[3.0.4.1]decane-8-carboxamide] | – | – | 0.9 |
| C=C[C@@H]1C[C@]1(NC(=O)[C@@H]1C[C@@]2(CN1C(=O)[C@@H](NC(=O)[C@@H](NC(=O)[C@@H]1CCC(F)(F)CN1C(C)C)C1CCCCC1)C(C)(C)C)C(C)(C)C21CCC1)C(=O)NS(=O)(=O)N1CCCC1 [Compound 105, (5R,8S)-7-[(2S)-2-{[(2S)-2-cyclohexyl-2-({[(2S)-5,5-difluoro-1-isopropylpiperidin-2-yl]carbonyl}amino)acetyl]amino}-3,3-dimethylbutanoyl]-10,10-dimethyl-N-{(1R,2S)-1-[(pyrrolidin-1-ylsulfonyl)carbamoyl]-2-vinylcyclopropyl}-7-azadispiro[3.0.4.1]decane-8-carboxamide] | – | – | 45 |
| C=C[C@@H]1C[C@]1(NC(=O)C1C[C@@]2(CN1C(=O)[C@@H](NC(=O)c1cccc(C(=O)NC)c1)C(C)(C)C)C(C)(C)C21CCC1)C(=O)NS(=O)(=O)N1CCCC1 (stereo partly drawn) [Compound 88, N-[(1S)-1-{[(5R)-10,10-dimethyl-8-({(1R,2S)-1-[(pyrrolidin-1-ylsulfonyl)carbamoyl]-2-vinylcyclopropyl}carbamoyl)-7-azadispiro[3.0.4.1]dec-7-yl]carbonyl}-2,2-dimethylpropyl]-N′-methylisophthalamide] | – | – | 500 |
| C=C[C@@H]1C[C@]1(NC(=O)[C@@H]1C[C@@]2(CN1C(=O)[C@@H](NC(=O)[C@@H](NC(=O)[C@H]1CCCCN1C(C)C)C1CCCCC1)C(C)(C)C)C(C)(C)C21CCC1)C(=O)NS(=O)(=O)N(C)CC [Compound 92, (5R,8S)-7-[(2S)-2-{[(2S)-2-cyclohexyl-2-({[(2R)-1-isopropylpiperidin-2-yl]carbonyl}amino)acetyl]amino}-3,3-dimethylbutanoyl]-N-[(1R,2S)-1-({[ethyl(methyl)amino]sulfonyl}carbamoyl)-2-vinylcyclopropyl]-10,10-dimethyl-7-azadispiro[3.0.4.1]decane-8-carboxamide] | – | – | 3 |
